Test results published in ChEMBL document CHEMBL1129893 (Bioorg Med Chem Lett, 1997).
Active and inactive are the calls of the source. The rule behind the calls is not given here.

Molecular target: T1, Estrogen receptor (Homo sapiens, UniProt Q92731+P03372)
Details: mcf-7
Description: Antagonist effect in breast tissue was assayed by inhibition of estrogen stimulated MCF-7 cell proliferation

IC50 [nM]	Compound
30	COC(=O)c1ccc2c(C(=O)c3ccc(OCCN4CCCCC4)cc3)c(-c3ccc(O)cc3)sc2c1
325	O=C(O)c1ccc(-c2sc3cc(O)ccc3c2C(=O)c2ccc(OCCN3CCCCC3)cc2)cc1
1000	NC(=O)c1ccc2c(C(=O)c3ccc(OCCN4CCCCC4)cc3)c(-c3ccc(O)cc3)sc2c1
32	CC(=O)c1ccc(-c2sc3cc(O)ccc3c2C(=O)c2ccc(OCCN3CCCCC3)cc2)cc1
60	CC(=O)c1ccc2c(C(=O)c3ccc(OCCN4CCCCC4)cc3)c(-c3ccc(O)cc3)sc2c1
200	NC(=O)c1ccc(-c2sc3cc(O)ccc3c2C(=O)c2ccc(OCCN3CCCCC3)cc2)cc1

The remaining lines, values behind:

Compound	IC50 [nM]
CCOP(=O)(OCC)c1ccc2c(C(=O)c3ccc(OCCN4CCCCC4)cc3)c(-c3ccc(O)cc3)sc2c1	200
C#Cc1ccc(-c2sc3cc(O)ccc3c2C(=O)c2ccc(OCCN3CCCCC3)cc2)cc1	0.8
CN(C)C(=O)c1ccc(-c2sc3cc(O)ccc3c2C(=O)c2ccc(OCCN3CCCCC3)cc2)cc1	20
COC(=O)c1ccc2c(C(=O)c3ccc(OCCN4CCCCC4)cc3)c(-c3ccccc3)sc2c1	1000
COC(=O)c1ccc(-c2sc3ccccc3c2C(=O)c2ccc(OCCN3CCCCC3)cc2)cc1	1000
CCOP(=O)(OCC)c1ccc(-c2sc3cc(O)ccc3c2C(=O)c2ccc(OCCN3CCCCC3)cc2)cc1	210
CCCCOC(=O)c1ccc2c(C(=O)c3ccc(OCCN4CCCCC4)cc3)c(-c3ccc(O)cc3)sc2c1	40
C#Cc1ccc2c(C(=O)c3ccc(OCCN4CCCCC4)cc3)c(-c3ccc(O)cc3)sc2c1	20
CNC(=O)c1ccc(-c2sc3cc(O)ccc3c2C(=O)c2ccc(OCCN3CCCCC3)cc2)cc1	40
N#Cc1ccc(-c2sc3cc(O)ccc3c2C(=O)c2ccc(OCCN3CCCCC3)cc2)cc1	8
COC(=O)c1ccc(-c2sc3cc(O)ccc3c2C(=O)c2ccc(OCCN3CCCCC3)cc2)cc1	50
COC(=O)c1ccc(-c2sc3cc(C(=O)OC)ccc3c2C(=O)c2ccc(OCCN3CCCCC3)cc2)cc1	1000
CC(C)COC(=O)c1ccc2c(C(=O)c3ccc(OCCN4CCCCC4)cc3)c(-c3ccc(O)cc3)sc2c1	40
C=Cc1ccc(-c2sc3cc(O)ccc3c2C(=O)c2ccc(OCCN3CCCCC3)cc2)cc1	7
CCOC(=O)c1ccc(-c2sc3cc(O)ccc3c2C(=O)c2ccc(OCCN3CCCCC3)cc2)cc1	50

Molecular target: T1, Estrogen receptor
Test: Displacement of [3H]estradiol from estrogen receptor in MCF-7 cell lysate; Inactive
Assay type: cell-free
Details: not given

Relative binding affinity	Compound
inactive	O=C(O)c1ccc2c(C(=O)c3ccc(OCCN4CCCCC4)cc3)c(-c3ccc(O)cc3)sc2c1
inactive	COC(=O)c1ccc(-c2sc3ccccc3c2C(=O)c2ccc(OCCN3CCCCC3)cc2)cc1
